Reference: patent US20090326001A1, “THIENOPYRIDINE DERIVATIVES AS MODULATORS OF METABOTROPIC GLUTAMATE RECEPTORS” (priority 2005, published 2009)

Assays:
mGluR5 = target: T1, mGluR5 (UniProt P31424); assay: mGluR5 receptor binding test ([3H]-M-MPEP displacement); conditions: radioligand [3H]-M-MPEP 2 nM; table does not say rat cerebro-cortical membrane or human mGluR5a A18 cells; read-out: mGlu5 Ki
T1 construct: Rat cerebro-cortical membrane preparation
Method: Rat cerebro-cortical membrane preparation was used to determine the binding characteristics of reference compounds and novel compounds to the rat mGluR5. The A18 cell line expressing hmGluR5a (purchased from Euroscreen) was used to determine binding characteristics of the chemical compounds to the human mGluR5a receptor. As radioligand [3H]-M-MPEP (2 nM) was used. The nonspecific binding was determined in the presence of 10 μM M-MPEP.

rat mGluR1 = target: T2, rat mGluR1 (Rattus norvegicus, UniProt P23385); assay: mGluR1 receptor binding test ([3H]R214127 displacement, rat cerebellar membrane); conditions: radioligand [3H]R214127 3 nM, read-out: mGlu1 Ki
T2 construct: rat cerebellar membrane preparation was used; from tissue; host or cells: rat cerebellum (membrane preparation)
Method: MGluR1 receptor binding testes were performed according to modified method of Lavreysen et al. (Mol. Pharm., 2003, 63, 1082). Based on the high homology between the human and rat mGluR1 receptors, rat cerebellar membrane preparation was used to determine the binding characteristics of reference compounds and novel compounds to the rat mGluR1. As radioligand [3H]R214127 (3 nM) was used and the nonspecific binding was determined in the presence of 1 μM of R214127.
IC-50 values were determined from displacement curves by nonlinear regression analysis and were converted by equation method of Cheng and Prusoff (Biochem. Pharmacol., 1973, 22, 3099) to Ki values.

T2 sequence (P23385 19-1199): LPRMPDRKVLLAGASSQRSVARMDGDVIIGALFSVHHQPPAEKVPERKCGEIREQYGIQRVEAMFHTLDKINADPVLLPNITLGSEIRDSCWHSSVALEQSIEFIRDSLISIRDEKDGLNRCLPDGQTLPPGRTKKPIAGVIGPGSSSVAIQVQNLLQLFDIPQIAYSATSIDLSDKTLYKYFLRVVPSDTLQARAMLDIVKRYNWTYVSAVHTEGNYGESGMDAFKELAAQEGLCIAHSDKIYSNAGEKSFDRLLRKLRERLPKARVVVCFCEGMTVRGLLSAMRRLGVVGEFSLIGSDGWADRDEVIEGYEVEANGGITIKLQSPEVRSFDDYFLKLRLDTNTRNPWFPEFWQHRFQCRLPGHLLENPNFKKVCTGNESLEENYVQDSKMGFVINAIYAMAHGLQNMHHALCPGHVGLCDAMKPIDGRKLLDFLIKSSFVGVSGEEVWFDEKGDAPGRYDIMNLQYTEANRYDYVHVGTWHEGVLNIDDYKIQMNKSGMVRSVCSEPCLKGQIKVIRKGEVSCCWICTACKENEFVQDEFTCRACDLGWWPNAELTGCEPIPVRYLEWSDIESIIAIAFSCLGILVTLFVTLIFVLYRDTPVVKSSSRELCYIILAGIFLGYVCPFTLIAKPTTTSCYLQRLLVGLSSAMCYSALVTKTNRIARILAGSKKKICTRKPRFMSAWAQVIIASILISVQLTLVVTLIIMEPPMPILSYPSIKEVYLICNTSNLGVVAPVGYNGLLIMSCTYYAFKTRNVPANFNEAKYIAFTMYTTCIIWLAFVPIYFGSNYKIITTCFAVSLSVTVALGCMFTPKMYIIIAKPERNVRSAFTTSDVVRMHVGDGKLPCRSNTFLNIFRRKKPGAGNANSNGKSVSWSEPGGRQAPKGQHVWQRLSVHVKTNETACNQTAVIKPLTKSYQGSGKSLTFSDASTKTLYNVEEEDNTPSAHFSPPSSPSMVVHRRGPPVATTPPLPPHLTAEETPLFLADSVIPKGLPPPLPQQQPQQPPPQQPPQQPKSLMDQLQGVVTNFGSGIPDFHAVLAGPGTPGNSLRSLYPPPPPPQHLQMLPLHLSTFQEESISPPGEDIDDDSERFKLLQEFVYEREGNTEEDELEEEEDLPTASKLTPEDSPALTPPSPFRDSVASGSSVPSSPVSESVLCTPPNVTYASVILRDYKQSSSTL

Ki (mGluR5) [nM]	Ki (rat mGluR1) [nM]	Molecule
< 500	< 500	O=C(Cc1ccc(F)cc1)c1sc2ncccc2c1-c1ccc(F)cc1 [Compound 3, 2-(4-fluoro-phenyl)-1-[3-(4-fluoro-phenyl)-thieno[2,3-b]pyridin-2-yl]-ethanone]
> 1500	> 1500	O=C(Nc1ccc(F)cc1)c1sc2ncccc2c1-c1ccc(F)cc1 [Compound 37]
< 500	< 500	O=C(Cc1ccc(F)cc1)c1sc2ncccc2c1-c1ccc(Cl)cc1 [Compound 1, 1-[3-(4-chloro-phenyl)-thieno[2,3-b]pyridin-2-yl]-2-(4-fluoro-phenyl)-ethanone]
< 500	< 500	O=C(CCc1ccc(F)cc1)c1sc2ncccc2c1-c1ccc(F)cc1 [Compound 5, 3-(4-Fluoro-phenyl)-1-[3-(4-fluoro-phenyl)-thieno[2,3-b]pyridin-2-yl]-propan-1-one]
500 to 1500	< 500	O=C(CCc1ccccn1)c1sc2ncccc2c1-c1ccc(F)cc1 [Compound 17]
< 500	< 500	O=C(CCc1cccc(F)c1)c1sc2ncccc2c1-c1ccc(F)cc1 [Compound 4, 3-(3-fluoro-phenyl)-1-[3-(4-fluoro-phenyl)-thieno[2,3-b]pyridin-2-yl]-propan-1-one]
< 500	< 500	O=C(Cc1ccc(F)c(F)c1)c1sc2ncccc2c1-c1ccc(Cl)cc1 [Compound 2, 1-[3-(4-chloro-phenyl)-thieno[2,3-b]pyridin-2-yl]-2-(3,4-difluoro-phenyl)-ethanone]
< 500	< 500	O=C(OCc1ccc(F)cc1)c1sc2ncccc2c1-c1ccc(Cl)cc1 [Compound 20, 3-(4-chloro-phenyl)-thieno[2,3-b]pyridine-2-carboxylic acid 4-fluoro-benzyl ester]
500 to 1500	500 to 1500	O=C(CCc1ccoc1)c1sc2ncccc2c1-c1ccc(F)cc1 [Compound 16]
< 500	< 500	CCOC(=O)CC(=O)c1sc2nc(C)ccc2c1-c1ccc(Cl)cc1 [Compound 26, 3-[3-(4-chloro-phenyl)-6-methyl-thieno[2,3-b]pyridin-2-yl]-3-oxo-propionic acid ethyl ester]
< 500	< 500	O=C(CCc1ccsc1)c1sc2ncccc2c1-c1ccc(F)cc1 [Compound 19, 1-[3-(4-fluoro-phenyl)-thieno[2,3-b]pyridin-2-yl]-3-thiophen-3-yl-propan-1-one]
500 to 1500	< 500	O=C(CCc1cccs1)c1sc2ncccc2c1-c1ccc(F)cc1 [Compound 18]
> 1500	> 1500	O=C(Nc1nccs1)c1sc2ncccc2c1-c1ccc(Cl)cc1 [Compound 35]
< 500	< 500	CCOC(=O)CC(=O)c1sc2ncccc2c1-c1ccc(Cl)cc1 [Compound 23, 3-[3-(4-Chloro-phenyl)-thieno[2,3-b]pyridin-2-yl]-3-oxo-propionic acid ethyl ester]
> 1500	500 to 1500	CN(Cc1ccc(F)cc1)C(=O)c1sc2ncccc2c1-c1ccc(Cl)cc1 [Compound 34]
< 500	< 500	CCOC(=O)CC(=O)c1sc2ncccc2c1-c1ccc(C)cc1 [Compound 22, 3-oxo-3-(3-p-tolyl-thieno[2,3-b]pyridin-2-yl)-propionic acid ethyl ester]
< 500	< 500	CCOC(=O)CC(=O)c1sc2ncccc2c1-c1ccc(F)cc1 [Compound 24, 3-[3-(4-fluoro-phenyl)-thieno[2,3-b]pyridin-2-yl]-3-oxo-propionic acid ethyl ester]
< 500	< 500	CCOC(=O)CC(=O)c1sc2ncccc2c1-c1ccccc1 [Compound 25, 3-oxo-3-(3-phenyl-thieno[2,3-b]pyridin-2-yl)-propionic acid ethyl ester]
> 1500	> 1500	CN(Cc1cccs1)C(=O)c1sc2ncccc2c1-c1ccc(Cl)cc1 [Compound 30]
< 500	< 500	O=C(NCc1ccc(F)cc1)c1sc2ncccc2c1-c1ccc(F)cc1 [Compound 27, 3-(4-Fluoro-phenyl)-thieno[2,3-b]pyridin-2-carboxylic acid (4-fluoro-benzyl)-amide]

Molecule	Ki (mGluR5) [nM]	Ki (rat mGluR1) [nM]
3-(4-Fluoro-phenyl)-1-[3-(4-fluoro-phenyl)-thieno[2,3-b]pyridin-2-yl]-propenone [Compound 10]	> 1500	< 500
